Assay results from patent US8901313B2, “6,5-heterocyclic propargylic alcohol compounds and uses therefor” (Genentech, Inc., priority 2011, dated 2014).

Target: T1, nuclear factor-kappa B (NF-kB)-inducing kinase (NIK) (Homo sapiens, UniProt Q99558)
T1 construct: made in house; host or cells: baculovirus-infected insect cells
Assay: NIK Enzyme Inhibition Assay (Transcreener ADP assay)
Assay type: biochemical
Details: purified NIK 0.2-1 nM, 10 uM ATP, fluorescence polarization, Morrison's quadratic equation; read-out: inhibitory value (Ki) for NIK

T1 sequence (Q99558 whole entry): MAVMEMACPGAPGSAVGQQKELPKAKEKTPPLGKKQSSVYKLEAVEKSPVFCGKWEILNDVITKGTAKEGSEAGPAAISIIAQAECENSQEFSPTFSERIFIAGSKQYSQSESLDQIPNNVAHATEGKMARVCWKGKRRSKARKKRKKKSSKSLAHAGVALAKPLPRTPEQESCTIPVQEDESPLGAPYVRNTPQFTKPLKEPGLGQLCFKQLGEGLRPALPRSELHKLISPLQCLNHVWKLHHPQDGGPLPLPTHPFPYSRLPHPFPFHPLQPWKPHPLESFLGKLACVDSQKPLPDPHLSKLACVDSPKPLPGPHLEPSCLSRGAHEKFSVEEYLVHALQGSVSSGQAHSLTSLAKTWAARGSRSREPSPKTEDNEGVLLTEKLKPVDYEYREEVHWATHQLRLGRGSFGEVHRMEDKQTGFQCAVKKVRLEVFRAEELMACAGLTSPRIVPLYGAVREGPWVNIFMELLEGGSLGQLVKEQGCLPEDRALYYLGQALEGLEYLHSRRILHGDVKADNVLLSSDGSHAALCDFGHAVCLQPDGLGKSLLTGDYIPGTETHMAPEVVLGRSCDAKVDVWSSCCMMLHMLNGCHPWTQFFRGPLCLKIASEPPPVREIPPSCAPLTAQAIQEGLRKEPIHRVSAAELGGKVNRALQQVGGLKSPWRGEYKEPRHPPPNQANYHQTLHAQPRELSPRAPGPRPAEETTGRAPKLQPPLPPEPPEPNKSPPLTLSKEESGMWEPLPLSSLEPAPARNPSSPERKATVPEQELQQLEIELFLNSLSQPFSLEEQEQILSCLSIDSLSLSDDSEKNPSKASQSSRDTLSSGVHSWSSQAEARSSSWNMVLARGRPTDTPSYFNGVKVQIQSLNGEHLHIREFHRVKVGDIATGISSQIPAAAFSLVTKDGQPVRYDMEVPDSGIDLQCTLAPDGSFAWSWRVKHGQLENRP

| SMILES | Ki [nM] |
| --- | --- |
| CNc1nccc(-n2ncc3ccc(C#C[C@@](C)(O)c4cc(C)on4)cc32)n1 [Example T1.1-101, (2R)-4-[1-[2-(methylamino)pyrimidin-4-yl]indazol-6-yl]-2-(5-methylisoxazol-3-yl)but-3-yn-2-ol] | 150 |
| Cc1nn(-c2ccnc(N)n2)c2cc(C#CC(C)(O)C(=O)N3CC(O)C3)ccc12 (centres unmarked) [Example T1.1-102, 4-[1-(2-aminopyrimidin-4-yl)-3-methyl-indazol-6-yl]-2-hydroxy-1-(3-hydroxyazetidin-1-yl)-2-methyl-but-3-yn-1-one] | 310 |
| Cc1nn(-c2ccnc(N)n2)c2cc(C#CC(C)(O)C(=O)N(C)C)ccc12 (centres unmarked) [Example T1.1-103, 4-[1-(2-aminopyrimidin-4-yl)-3-methyl-indazol-6-yl]-2-hydroxy-N,N,2-trimethyl-but-3-ynamide] | 315 |
| Cc1cc(C(C)(O)C#Cc2ccc3nc(C(=O)N4CCCC4)n(-c4ccnc(N)n4)c3c2)no1 (centres unmarked) [Example T1.1-104, [1-(2-aminopyrimidin-4-yl)-6-[3-hydroxy-3-(5-methylisoxazol-3-yl)but-1-ynyl]benzimidazol-2-yl]-pyrrolidin-1-yl-methanone] | 342 |
| Cc1nc2ccc(C#CC3(O)CCCCC3)cc2n1-c1ncnc(N)n1 [Example T1.1-106, 1-[2-[3-(4-amino-1,3,5-triazin-2-yl)-2-methyl-benzimidazol-5-yl]ethynyl]cyclohexanol] | 775 |
| Cc1nc2ccc(C#CC3(CO)CCCC3)cc2n1-c1ncnc(N)n1 [Example T1.1-107, [1-[2-[3-(4-amino-1,3,5-triazin-2-yl)-2-methyl-benzimidazol-5-yl]ethynyl]cyclopentyl]methanol] | 913 |
| CC(O)(C#Cc1ccc2nc(OCCO)n(-c3ccnc(N)n3)c2c1)c1ccc(F)cn1 (centres unmarked) [Example T1.1-108, 4-[3-(2-aminopyrimidin-4-yl)-2-(2-hydroxyethoxy)benzimidazol-5-yl]-2-(5-fluoro-2-pyridyl)but-3-yn-2-ol] | 1600 |
| Cc1nc2ccc(C#CC(O)C3CC(O)C3)cc2n1-c1ncnc(N)n1 (centres unmarked) [Example T1.1-109, 3-[3-[3-(4-amino-1,3,5-triazin-2-yl)-2-methyl-benzimidazol-5-yl]-1-hydroxy-prop-2-ynyl]cyclobutanol] | 1600 |
| Cc1nc2ccc(C#CC3(O)CC4CCC3C4)cc2n1-c1ncnc(N)n1 (centres unmarked) [Example T1.1-110, 2-[2-[3-(4-amino-1,3,5-triazin-2-yl)-2-methyl-benzimidazol-5-yl]ethynyl] norbornan-2-ol] | 1700 |
| Cc1nc2ccc(C#CC(C)(O)c3nc(CO)cs3)cc2n1-c1ncnc(N)n1 (centres unmarked) [Example T1.1-111, 4-[3-(4-amino-1,3,5-triazin-2-yl)-2-methyl-benzimidazol-5-yl]-2-[4-(hydroxy-methyl)thiazol-2-yl]but-3-yn-2-ol] | 1700 |
| Cc1nc2ccc(C#CC(C)(O)c3nc(CC#N)cs3)cc2n1-c1ncnc(N)n1 (centres unmarked) [Example T1.1-112, 2-[2-[3-[3-(4-amino-1,3,5-triazin-2-yl)-2-methyl-benzimidazol-5-yl]-1-hydroxy-1-methyl-prop-2-ynyl]thiazol-4-yl] acetonitrile] | 1800 |
| Cc1nc2ccc(C#CC3(O)CC(C#N)C3)cc2n1-c1ncnc(N)n1 (centres unmarked) [Example T1.1-113, 3-[2-[3-(4-amino-1,3,5-triazin-2-yl)-2-methyl-benzimidazol-5-yl]ethynyl]-3-hydroxy-cyclobutanecarbonitrile] | 2400 |
| Cc1nc2ccc(C#CC3(O)CCCOC3)cc2n1-c1ncnc(N)n1 (centres unmarked) [Example T1.1-114, 3-[2-[3-(4-amino-1,3,5-triazin-2-yl)-2-methyl-benzimidazol-5-yl]ethynyl] tetrahydropyran-3-ol] | 2600 |
| Cc1nc2ccc(C#CC3(O)CC(CO)C3)cc2n1-c1ncnc(N)n1 (centres unmarked) [Example T1.1-115, 1-[2-[3-(4-amino-1,3,5-triazin-2-yl)-2-methyl-benzimidazol-5-yl]ethynyl]-3-(hydroxymethyl)cyclobutanol] | 3900 |
| Cc1nc2ccc(C#CC3(O)COC3)cc2n1-c1ncnc(N)n1 [Example T1.1-116, 3-[2-[3-(4-amino-1,3,5-triazin-2-yl)-2-methyl-benzimidazol-5-yl]ethynyl] oxetan-3-ol] | ≥ 5000 |
| CN(C)C(=O)c1nn(-c2ccnc(N)n2)c2cc(C#CC3(O)CCn4cncc43)ccc12 (centres unmarked) [Example T1.1-117, 1-(2-aminopyrimidin-4-yl)-6-[2-(7-hydroxy-5,6-dihydropyrrolo[1,2-c]imidazol-7-yl)ethynyl]-N,N-dimethyl-indazole-3-carboxamide] | ≥ 5000 |
| Cc1nc2ccc(C#CC(C)(C)CO)cc2n1-c1ncnc(N)n1 [Example T1.1-118, 4-[3-(4-amino-1,3,5-triazin-2-yl)-2-methyl-benzimidazol-5-yl]-2,2-dimethyl-but-3-yn-1-ol] | ≥ 5000 |
| CNc1ccnc(-n2ncc3ccc(C#CC(C)(O)c4cc(C)on4)cc32)n1 (centres unmarked) [Example T1.1-119, 4-[1-[4-(methylamino)pyrimidin-2-yl]indazol-6-yl]-2-(5-methyl-isoxazol-3-yl)but-3-yn-2-ol] | ≥ 5000 |

| SMILES | Ki [nM] |
| --- | --- |
| Nc1nccc(-n2ncc3c(F)cc(C#CC4(O)CCCC4)cc32)n1 [Example T1.1-120, 1-[2-[1-(2-aminopyrimidin-4-yl)-4-fluoro-indazol-6-yl]ethynyl] cyclopentanol] | ≥ 5000 |
| CC(O)(C#Cc1ccc2c(C(=O)N3CCOCC3)nn(-c3ccnc(N)n3)c2c1)c1ccncn1 (centres unmarked) [Example T1.1-121, [1-(2-aminopyrimidin-4-yl)-6-(3-hydroxy-3-pyrimidin-4-yl-but-1-ynyl)indazol-3-yl]-morpholino-methanone] | ≥ 5000 |
| Cc1nc([C@](C)(O)C#Cc2ccc3nc(OCCF)n(-c4ccnc(N)n4)c3c2)no1 [Example T1.1-122, (2R)-4-[3-(2-aminopyrimidin-4-yl)-2-(2-fluoroethoxy)benzimidazol-5-yl]-2-(5-methyl-1,2,4-oxadiazol-3-yl)but-3-yn-2-ol] | 0.3 |
| CC(O)(C#Cc1ccc2nc(OCCO)n(-c3ccnc(N)n3)c2c1)c1ccc(Cl)cn1 (centres unmarked) [Example T1.1-123, 4-[3-(2-aminopyrimidin-4-yl)-2-(2-hydroxyethoxy)benzimidazol-5-yl]-2-(5-chloro-2-pyridyl)but-3-yn-2-ol] | ≥ 5000 |
| Cc1nn(-c2ccnc(N)n2)c2cc(C#CC(C)(O)c3nccs3)ccc12 (centres unmarked) [Example T1.1-125, 4-[1-(2-aminopyrimidin-4-yl)-3-methyl-indazol-6-yl]-2-thiazol-2-yl-but-3-yn-2-ol] | 1 |
| Cc1nc2ccc(C#CC(C)(O)Cn3cccn3)cc2n1-c1ncnc(N)n1 (centres unmarked) [Example T1.1-126, 4-[3-(4-amino-1,3,5-triazin-2-yl)-2-methyl-benzimidazol-5-yl]-2-methyl-1-pyrazol-1-yl-but-3-yn-2-ol] | ≥ 5000 |
| CC(O)(C#Cc1ccc2c(C(=O)N3CCOCC3)nn(-c3ccnc(N)n3)c2c1)c1ncccn1 (centres unmarked) [Example T1.1-130, [1-(2-aminopyrimidin-4-yl)-6-(3-hydroxy-3-pyrimidin-2-yl-but-1-ynyl)indazol-3-yl]-morpholino-methanone] | ≥ 5000 |
| COCCNc1nc2ccc(C#CC(C)(O)c3nc(C)cs3)cc2n1-c1ccnc(N)n1 (centres unmarked) [Example T1.1-131, 4-[3-(2-aminopyrimidin-4-yl)-2-(2-methoxyethylamino)benzimidazol-5-yl]-2-(4-methylthiazol-2-yl)but-3-yn-2-ol] | 9 |
| CC(O)(C#Cc1ccc2nc(OCCO)n(-c3ccnc(N)n3)c2c1)c1ccc(Cl)cn1 (centres unmarked) [Example T1.1-133, 4-[3-(2-aminopyrimidin-4-yl)-2-(2-hydroxyethoxy)benzimidazol-5-yl]-2-(5-chloro-2-pyridyl)but-3-yn-2-ol] | 0.4 |
| Cc1nn(-c2ccnc(N)n2)c2cc(C#CC3(O)CCCN(C)C3=O)ccc12 (centres unmarked) [Example T1.1-136, 3-[2-[1-(2-aminopyrimidin-4-yl)-3-methyl-indazol-6-yl]ethynyl]-3-hydroxy-1-methyl-piperidin-2-one] | 2 |
| Cc1nnc(C(C)(O)C#Cc2ccc3c(C(=O)N4CCOCC4)nn(-c4ccnc(N)n4)c3c2)o1 (centres unmarked) [Example T1.1-137, [1-(2-aminopyrimidin-4-yl)-6-[3-hydroxy-3-(5-methyl-1,3,4-oxadiazol-2-yl)but-1-ynyl]indazol-3-yl]-morpholino-methanone] | 7 |
| COCCN(C)C(=O)c1nn(-c2ccnc(N)n2)c2cc(C#CC(C)(O)c3ncccn3)ccc12 (centres unmarked) [Example T1.1-138, 1-(2-aminopyrimidin-4-yl)-6-(3-hydroxy-3-pyrimidin-2-yl-but-1-ynyl)-N-(2-methoxyethyl)-N-methyl-indazole-3-carboxamide] | 0.2 |
| CC(O)(C#Cc1ccc2c(C(=O)N3CC(F)(F)C3)nn(-c3ccnc(N)n3)c2c1)c1ncccn1 (centres unmarked) [Example T1.1-139, [1-(2-aminopyrimidin-4-yl)-6-(3-hydroxy-3-pyrimidin-2-yl-but-1-ynyl)indazol-3-yl]-(3,3-difluoroazetidin-1-yl)methanone] | 20 |
| CC(O)(C#Cc1ccc2c(C(=O)N3CC4CC4C3)nn(-c3ccnc(N)n3)c2c1)c1ncccn1 (centres unmarked) [Example T1.1-140, [1-(2-aminopyrimidin-4-yl)-6-(3-hydroxy-3-pyrimidin-2-yl-but-1-ynyl)indazol-3-yl]-(3-azabicyclo[3.1.0]hexan-3-yl)methanone] | 5.28 |
| CN(C(=O)c1nn(-c2ccnc(N)n2)c2cc(C#CC(C)(O)c3ncccn3)ccc12)c1ccccn1 (centres unmarked) [Example T1.1-142, 1-(2-aminopyrimidin-4-yl)-6-(3-hydroxy-3-pyrimidin-2-yl-but-1-ynyl)-N-methyl-N-(2-pyridyl)indazole-3-carboxamide] | 7 |
| CC(O)(C#Cc1ccc2c(C(=O)Nc3cccnc3)nn(-c3ccnc(N)n3)c2c1)c1ncccn1 (centres unmarked) [Example T1.1-143, 1-(2-aminopyrimidin-4-yl)-6-(3-hydroxy-3-pyrimidin-2-yl-but-1-ynyl)-N-(3-pyridyl) indazole-3-carboxamide] | 2 |
| CC(O)(C#Cc1ccc2c(C(=O)N3CCOCC3)nn(-c3ccnc(N)n3)c2c1)c1ncco1 (centres unmarked) [Example T1.1-144, [1-(2-aminopyrimidin-4-yl)-6-(3-hydroxy-3-oxazol-2-yl-but-1-ynyl)indazol-3-yl]-morpholino-methanone] | 3 |
